Source: BindingDB's records for doi:10.1021/acs.jmedchem.7b01670 (Vrije Universiteit Amsterdam, 2018)

What was measured:
[1] = target: cAMP-specific 3',5'-cyclic phosphodiesterase 4B (Homo sapiens, UniProt Q07343); assay: Inhibition of full length recombinant human PDE4B1 expressed in Sf21 insect cells using cAMP as substrate by scintillation proximity assay
Phosphodiesterase = target: T1, Phosphodiesterase (Trypanosoma brucei, UniProt Q8WQX9); assay: Inhibition of full length Trypanosoma brucei PDEB1 expressed in Sf21 insect cells using cAMP as substrate by scintillation proximity assay
T1 sequence (Q8WQX9 whole entry): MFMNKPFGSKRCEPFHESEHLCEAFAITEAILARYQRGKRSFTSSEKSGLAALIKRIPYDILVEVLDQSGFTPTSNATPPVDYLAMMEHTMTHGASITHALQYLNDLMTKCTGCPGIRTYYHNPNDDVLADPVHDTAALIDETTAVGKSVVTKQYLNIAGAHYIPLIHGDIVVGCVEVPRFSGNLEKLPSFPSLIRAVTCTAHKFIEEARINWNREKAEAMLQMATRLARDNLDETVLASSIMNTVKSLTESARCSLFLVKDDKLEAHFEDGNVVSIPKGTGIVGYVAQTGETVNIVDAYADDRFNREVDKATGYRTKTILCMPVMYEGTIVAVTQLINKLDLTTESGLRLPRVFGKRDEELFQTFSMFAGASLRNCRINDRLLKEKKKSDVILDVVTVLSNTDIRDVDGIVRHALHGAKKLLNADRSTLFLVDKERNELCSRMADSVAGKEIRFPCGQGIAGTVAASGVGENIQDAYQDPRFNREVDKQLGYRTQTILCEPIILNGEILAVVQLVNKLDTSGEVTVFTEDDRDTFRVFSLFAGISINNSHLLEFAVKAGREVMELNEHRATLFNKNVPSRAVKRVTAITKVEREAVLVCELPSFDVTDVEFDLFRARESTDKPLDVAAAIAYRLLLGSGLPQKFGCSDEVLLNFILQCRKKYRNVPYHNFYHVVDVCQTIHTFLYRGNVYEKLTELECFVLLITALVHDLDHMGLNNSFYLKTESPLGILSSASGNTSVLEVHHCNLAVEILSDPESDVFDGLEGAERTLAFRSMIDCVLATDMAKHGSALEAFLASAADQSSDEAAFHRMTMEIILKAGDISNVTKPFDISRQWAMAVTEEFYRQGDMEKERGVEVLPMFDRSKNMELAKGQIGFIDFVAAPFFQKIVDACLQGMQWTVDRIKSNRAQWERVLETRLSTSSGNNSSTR

Chain of cAMP-specific 3',5'-cyclic phosphodiesterase 4B (Q07343 whole entry): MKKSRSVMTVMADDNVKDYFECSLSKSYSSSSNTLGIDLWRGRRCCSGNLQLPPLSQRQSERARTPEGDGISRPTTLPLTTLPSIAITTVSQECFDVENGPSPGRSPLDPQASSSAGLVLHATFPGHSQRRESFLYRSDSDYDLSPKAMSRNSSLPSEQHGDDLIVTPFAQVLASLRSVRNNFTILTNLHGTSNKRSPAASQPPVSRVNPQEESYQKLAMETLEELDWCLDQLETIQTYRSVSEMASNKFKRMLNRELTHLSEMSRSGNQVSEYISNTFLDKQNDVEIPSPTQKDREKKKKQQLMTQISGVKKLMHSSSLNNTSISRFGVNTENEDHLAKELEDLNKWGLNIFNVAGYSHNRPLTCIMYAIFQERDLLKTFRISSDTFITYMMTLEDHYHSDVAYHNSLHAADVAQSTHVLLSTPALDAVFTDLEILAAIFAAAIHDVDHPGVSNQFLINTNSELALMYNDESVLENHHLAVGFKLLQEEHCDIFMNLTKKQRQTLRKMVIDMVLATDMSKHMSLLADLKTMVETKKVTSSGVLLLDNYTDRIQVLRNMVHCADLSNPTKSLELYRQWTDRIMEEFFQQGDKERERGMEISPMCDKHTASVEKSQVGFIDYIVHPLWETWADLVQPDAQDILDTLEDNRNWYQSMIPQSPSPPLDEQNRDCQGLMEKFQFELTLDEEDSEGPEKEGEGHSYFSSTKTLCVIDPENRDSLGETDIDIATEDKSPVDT

Ki [1] | Ki (Phosphodiesterase) | Compound
631 nM | 631 nM | COc1ccc(C2=NN(C3CCCCCC3)C(=O)[C@@H]3CC=CC[C@H]23)cc1-c1ccc(C(=O)N2CNC(=O)C2)cc1
3160 nM | 1000 nM | COc1ccc(C2=NN(C3CCCCCC3)C(=O)[C@@H]3CC=CC[C@H]23)cc1-c1ccc(C(=O)N2CCC(=O)C2)cc1
2510 nM | 1580 nM | COc1ccc(C2=NN(C3CCCCCC3)C(=O)[C@@H]3CC=CC[C@H]23)cc1-c1ccc(C(=O)N2CC(=O)N(C)C2)cc1

Compound | Ki [1] | Ki (Phosphodiesterase)
COc1ccc(C2=NN(C3CCCCCC3)C(=O)[C@@H]3CC=CC[C@H]23)cc1-c1ccc(C(=O)NCC(N)=O)cc1 | 630 nM | 40 nM
